What was measured:
[1] = biological target: T1, recombinant human MCU-NTD (residues 72-189) (Homo sapiens, UniProt Q8NE86); experiment: Interaction with recombinant MCU-NTD (NMR HSQC, SDS-PAGE); format: binding; details: for interaction with MCU-NTD in solution: cell-free, C-2 at 3-fold molar excess
T1 construct: recombinant human MCU-NTD (residues 72-189)
T1 sequence (Q8NE86 72-189): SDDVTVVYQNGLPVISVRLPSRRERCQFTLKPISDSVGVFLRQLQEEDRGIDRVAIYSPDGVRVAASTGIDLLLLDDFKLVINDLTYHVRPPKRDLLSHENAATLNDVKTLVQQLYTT
Text: To further elucidate the potential interaction of C-2 with the MCU-NTD, the interaction between C-2 and the uniformly ^15N-labeled recombinant human MCU-NTD (residues 72-189) was investigated using solution nuclear magnetic resonance (NMR) spectroscopy.
To determine if the MCU-NTD remained intact upon treatment with C-2, the insoluble aggregate (Insol.+C-2) was resuspended in loading dye and the migration of the protein was compared to untreated soluble MCU-NTD (Sol.) by SDIS-PAGE analysis. […] The appearance of the trimer and higher order aggregates upon treatment with C-2 may indicate that the MCU-NTD conformation induced by C-2 is different from that of the native conformation. Similar MCU-NTD aggregation was observed when the MCU-NTD was treated with lower molar ratios (i.e. 1:2 and 1:1) of C-2.
The clustering of these perturbations could be a result of i) direct binding with the compound, ii) indirect effects of the lower soluble protein concentration shifting the self-association equilibrium, or iii) C-2-mediated modifications to the protein. […] Thus, the NTD may be a potent target for MCU inhibition that is only accessible to C-2 because of its enhanced membrane permeability when compared to Ru360.

mCa2+ efflux channels = experiment: Mitochondrial Ca2+ efflux in permeabilized HEK293T cells; format: cell-based, human; details: for effect on mCa2+ efflux: 1 μM added after 20 μM Ca2+ pulse
Experimental: An equal number of IHEK293T (6×10^6 cells) were washed in Ca^2+ free PBS, pH 7.4, resuspended and permeabilized with 40 μg/ml digitonin in 1.5 ml of intracellular medium (ICM) composed of 120 mM KCl, 10 mM NaCl, 1 mM K—H2PO4, 20 mM HE PES-Tris, pH 7.2 and 2 μM thapsigargin to block the SERCA pump. All measurements were performed in the presence of 2 mM succinate. The permeabilized cells were loaded with JC-1 (800 nM) and Fura2-FF (0.5 μM), respectively. Fluorescence was monitored in a multi-wavelength excitation dual-wavelength emission fluorimeter. [Ca^2+]out is represented as the excitation ratio (340 nm/380 nm) of Fura2-FF/FA fluorescence and ΔΨm as the ratio of the fluorescence of J-aggregate (570 nm excitation/595 nm emission) and monomer (490 nm excitation/535 nm emission) forms of JC-1. A series of extra-mitochondrial Ca^2+ bolus (20 μM) was added and mitochondrial uncoupler, CCCP (2 jμM), were added at the indicated time points. All of the experiments were performed at 37° C. with constant stirring.
FIG. 4D is a graph showing assessment of mitochondrial Ca^2+ influx and efflux rates. Permeabilized HEK293T cells were pulsed with 20 μM Ca^2+ at 350 s to measure mitochondrial Ca^2+ uptake, followed by the addition of the 1 μM C-2 or Ru360 at 550 s, 10 μM CGP37157 at 600 s, and 6 μM CCCP at 750 s. In FIG. 4D, a representative trace depicts the comparison of C-2 and Ru360. FIG. 4E is a bar chart showing quantitation of Ca^2+ influx rate. FIG. 4F is a bar chart showing quantification of Ca^2+ efflux rate after addition of C-2 or Ru360. FIG. 4G is a bar chart showing quantification of CCCP-induced release of accumulated mitochondrial Ca^2+. […] To further confirm the selectivity of C-2 for the MCU, mCa^2+ uptake, mCa^2+ efflux rates and matrix Ca^2+ levels were measured in permeabilized HEK293T cells before and after treatment with C-2 using the fluorescent Ca^2+ indicator Fura-2-FF. […] Ru360 or C-2 were next added to inhibit MCU-mediated Ca^2+ uptake and subsequently visualize [Ca^2+]m efflux (FIG. 4D).

MTT cytotoxicity assay = format: cell-based, human; details: human; HEK293 cells, 72 hours incubation; read-out: IC50 (cytotoxicity, MTT)
Experimental: HEK293 (human embryonic kidney cells were obtained from American Type Culture Collection (ATCC, Washington D.C.) and cultured as adherent monolayers in a humidified 5% CO2 atmosphere at 37° C. in Minimum Essential Media supplemented with 10% fetal bovine serum (FBS) and 100 U/mL penicillin/streptomycin. HeLa cells were cultured in Dulbecco's Modified Eagle's Medium (DMEM) supplemented with 10% FBS and 100 U/mL penicillin/streptomycin. Cells were checked for contamination monthly using the PlasmoTest™ mycoplasma detection kit. Ventricular cardiomyocytes were isolated from neonatal rats (NRVMs) as previously described (H. M. Piper et al., Piper H. M. (eds), Cell Culture Techniques in Heart and Vessel Research, Springer Verlag: Berlin, 1990). The isolated myocytes were cultured in Ham's F-10 supplemented with 5%/o fetal bovine serum (FBS) and penicillin/streptomycin (100 U/ml) at 37° C. in a 95% air/5% CO2 humidified atmosphere for four days
Cells were seeded at 4000 cells/well in 100 μL/well in a 96-well plate and incubated for 24 hours. The media was removed and replaced with 200 μL of growth media containing varying concentrations of the complex. After 72 hours of incubation, the media was replaced with MEM containing 1 mg/mL of (4,5-dimethylthiazol-2-yl)-2,5-diepheyltetrazolium bromide (MTT). After four hours incubation, the media was removed and the purple formazan crystals were solubilized using 100 μL of a 8/1 DMSO/glycine buffer (pH 10) mixture. The absorbance at 570 nm was measured using a plate reader.
With the new nitrido-bridged ruthenium compounds C-2 and C-3 prepared, MCU-inhibitory properties of these compounds were evaluated and their activities compared to C-1, the oxo-bridged Ru360 analogue of the conventional art (S. R. Nathan et al., Inorg. Chem. 2017, 56, 3123-3126 and S. R. Nathan et al., J. Vis. Exp. 2017, 56527). The cytotoxicity of the complexes in HEK293 cells was first measured using the colorimetric thiazolyl blue tetrazolium bromide (MTT) assay, as well known in the art. […]

HeLa cells = experiment: Whole cell uptake of ruthenium (GFAAS) in HeLa cells; format: cell-based; details: 50 μM, 24 hours

Row | Structure (SMILES) | SDS-PAGE of protein precipitate formed with MCU-NTD ([1]; Coomassie blue staining) | interaction with MCU-NTD in solution [1] | effect on mCa2+ efflux (mCa2+ efflux channels) | change in activity upon treatment with CGP-37157 and CCCP (mCa2+ efflux channels; 10 μM CGP37157, 6 μM CCCP) | CC50 at 72 h (MTT cytotoxicity assay) | cellular uptake relative to C-1 and C-3 (HeLa cells)
1 | N.N.N.N.N.N.N.N.[Cl-].[Cl-].[N-3].[Ru+4].[Ru+4] [C-2, [Ru2(μ-N)(NH3)8Cl2]Cl3] | distinct and systematic laddering corresponding to the presence of monomer, dimer, trimer, tetramer, and higher aggregate formation | rapid formation of insoluble precipitate | do not affect mCa^2+ efflux channels | No change | 195 ± 8 µM | twice as effectively as C-1 and C-3
2 | N.N.N.N.N.N.N.N.O=C[O-].O=C[O-].[O-2].[Ru+3].[Ru+4] [Ru360, reference compound] | – | interacts with the purified MCU-NTD in a cell-free system, giving rise to precipitation and systematic laddering | do not affect mCa^2+ efflux channels | – | – | –

Source: patent publication US11154569B2, “Ruthenium μ-nitrido complexes and their use as calcium uptake inhibitors” (CORNELL UNIVERSITY, priority 2018, dated 2021)
